Data on 17 compounds can be found in US20240400546A1, “COMPOUNDS AND USES THEREOF” (JANSSEN PHARMACEUTICA NV, priority 2016, published 2024).

What all share (type): cell-based
For one test, the target named is T1, SCD5 (Homo sapiens, UniProt Q86SK9).
T1 construct: host or cells: S. cerevisiae ole1Δ strain, plasmid pRS316 with TDH3 promoter and CYC1 terminator
T1 sequence (Q86SK9 1-330): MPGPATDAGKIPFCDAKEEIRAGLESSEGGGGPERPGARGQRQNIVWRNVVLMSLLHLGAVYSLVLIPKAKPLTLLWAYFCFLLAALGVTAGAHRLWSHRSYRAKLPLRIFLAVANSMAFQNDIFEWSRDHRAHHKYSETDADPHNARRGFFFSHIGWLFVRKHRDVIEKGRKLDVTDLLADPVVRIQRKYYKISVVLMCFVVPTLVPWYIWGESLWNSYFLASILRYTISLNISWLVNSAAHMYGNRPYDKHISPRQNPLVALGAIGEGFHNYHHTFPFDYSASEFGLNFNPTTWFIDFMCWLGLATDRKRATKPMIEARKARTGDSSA
The test can be described thus: Growth inhibition of humanized yeast expressing SCD5 as sole desaturase. To be noted: for half-maximal inhibitory concentration (IC50), SCD5 humanized strain: FIG. 6. How it is done: (§1) Strain ole1Δ (yeast ole1 deletion mutant) was constructed by deleting OLE1 with NAT-MX6 in BY4741, amplifying the deletion cassette from the genomic DNA of the resulting strain with primers flanking the ORF by 1000 bp upstream and downstream, transforming the resulting deletion cassette into W303 pdr1Δ pdr3Δ, and plating transformants on YPD media containing G418 (200 μg/mL) and nourseothricin (100 μg/mL) with 0.01% TWEEN®-20 and 0.5 mM oleic and palmitoleic acids.
(§2) The coding sequence of yeast OLE1 was also cloned into this plasmid). These clones were then transformed into the ole1Δ strain and plated on CSM-Ura media (CSM lacking uracil) with 2% glucose (w/v) and independent colonies were isolated and amplified.
(§3) All compound profiling experiments were performed using the same basic protocol. Different genetic backgrounds (e.g., gene deletions) or conditions (e.g., addition of oleic and palmitoleic acid) were replaced as indicated below.
(§4) Yeast were cultured using standard techniques in complete synthetic media (CSM) and yeast nitrogen base supplemented with 2% (w/v) carbon source (glucose, raffinose, or galactose) to regulate the expression of the toxic disease protein. An initial starter culture was inoculated in 3 mL CSM-Glucose media and incubated overnight in a 30° C. shaker incubator (225 rpm). Saturated morning cultures were then diluted 1:20 in fresh CSM-Raffinose media and grown for 6 h to an OD600 (optical density) of ˜0.4-0.8 at 30° C. with shaking.
(§5) Compound administration was performed in two separate steps. First, 15 μL of CSM-Galactose (induces expression of toxic protein) was dispensed into clear 384 well assay plates using a MULTIDROP™ Combi reagent dispenser. […] The cultures described above were then diluted to a 2× concentration (0.03 and 0.08 for alpha-synuclein and ApoE, final OD600 of 0.015 and 0.04) in CSM-Galactose. For wild-type and Ole1/SCD1/SCD5 plasmid-containing strains, the 2× cell density was 0.02. […] For 96-well assays (FIGS. 1A and 1B), compound dilutions in DMSO were generated in 96 well plates and 1 μL was manually pipetted into 96 well clear bottom assay plates.
(§6) For experiments using a plasmid-borne copy of Ole1, SCD1, or SCD5 (FIGS. 3B, 6, and 7), media lacking uracil (SX-Ura, where X is glucose, raffinose, or galactose), was used for all steps of the compound profiling protocol to ensure its maintenance throughout the assay.
(§7) After yeast delivery, assay plates were incubated under humidified conditions at 30° C. for 24 to 40 h. ApoE4 rescue experiments were stopped at 24 h, aSyn experiments at 40 h, Ole1 at 24 h, and SCD1/SCD5 at 40 h. The growth of yeast was monitored by reading the OD600 of each well using a microplate reader (Perkin Elmer EnVision™).

The target in the next test is T2, Ole1 (Saccharomyces cerevisiae, UniProt P21147).
T2 construct: expressed in transfected cells; host or cells: S. cerevisiae ole1Δ strain (W303 pdr1Δ pdr3Δ background), plasmid pRS316 with TDH3 promoter and CYC1 terminator
T2 sequence (P21147 1-510): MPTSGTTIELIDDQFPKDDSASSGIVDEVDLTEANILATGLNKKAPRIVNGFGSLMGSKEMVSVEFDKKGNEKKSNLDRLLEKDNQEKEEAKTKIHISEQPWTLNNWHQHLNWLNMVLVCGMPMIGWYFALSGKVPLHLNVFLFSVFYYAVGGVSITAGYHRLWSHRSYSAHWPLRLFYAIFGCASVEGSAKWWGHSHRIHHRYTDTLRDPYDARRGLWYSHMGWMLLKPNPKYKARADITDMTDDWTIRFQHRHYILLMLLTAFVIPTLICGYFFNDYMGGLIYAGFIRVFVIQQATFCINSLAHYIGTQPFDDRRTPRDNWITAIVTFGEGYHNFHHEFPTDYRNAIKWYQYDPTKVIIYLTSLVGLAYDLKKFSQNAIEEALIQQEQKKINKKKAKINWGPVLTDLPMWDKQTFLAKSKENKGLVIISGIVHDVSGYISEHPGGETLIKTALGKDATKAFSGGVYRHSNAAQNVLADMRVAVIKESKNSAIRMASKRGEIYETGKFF
The test can be described thus: Growth inhibition of yeast expressing Ole1 as sole desaturase. To be noted: for Sensitivity of yeast expressing OLE1 to known SCD1/SCD5 inhibitors: FIG. 6; for OLE1 % Max Inhibition: yeast expressing Ole1 as sole desaturase. On the procedure:
as §1, §2, §3, §4, §5, §6, §7

In the next test the target is T3, SCD1 (Homo sapiens, UniProt O00767).
T3 construct: host or cells: S. cerevisiae ole1Δ strain, plasmid pRS316 with TDH3 promoter and CYC1 terminator
T3 sequence (O00767 1-359): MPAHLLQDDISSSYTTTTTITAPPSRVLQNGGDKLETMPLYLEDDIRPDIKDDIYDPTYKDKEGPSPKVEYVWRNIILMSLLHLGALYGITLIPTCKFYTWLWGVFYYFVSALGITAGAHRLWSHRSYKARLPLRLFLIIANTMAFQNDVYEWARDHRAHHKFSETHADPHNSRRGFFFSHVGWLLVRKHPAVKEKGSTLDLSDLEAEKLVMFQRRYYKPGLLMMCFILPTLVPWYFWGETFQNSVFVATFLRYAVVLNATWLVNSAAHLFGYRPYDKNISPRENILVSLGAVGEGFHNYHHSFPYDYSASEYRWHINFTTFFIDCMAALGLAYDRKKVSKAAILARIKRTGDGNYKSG
The test can be described thus: Growth inhibition of humanized yeast expressing SCD1 as sole desaturase. As to conditions: for half-maximal inhibitory concentration (IC50), SCD1 humanized strain: FIG. 6. Put shortly:
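ole1Δ yeast (W303 pdr1Δ pdr3Δ background) carried plasmid-borne human SCD1, human SCD5 or yeast Ole1 as the sole desaturase and were grown in uracil-lacking galactose medium in 384-well plates. Starting 2× density was OD600 0.02, with incubation at 30 °C. Growth was read as OD600 at 24 h for Ole1 and at 40 h for SCD1 and SCD5.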

Where [1] appears, read: humanized yeast expressing SCD5.
[2] abbreviates: humanized yeast expressing SCD1.
Where [3] appears, read: humanized yeast expressing human SCD5.
Where [4] appears, read: humanized yeast expressing human SCD1.
[5] abbreviates: growth of humanized yeast strain expressing human SCD5.
Where [6] appears, read: growth of humanized yeast strain expressing human SCD1.

`Cc1nnc(-c2ccc(N3CCC(Oc4ccccc4C(F)(F)F)CC3)nn2)s1` [MF-438, reference compound]: the “half-maximal inhibitory concentration (IC50), SCD5 humanized strain” value at SCD5 is on record as “low nanomolar”. Moreover, the “Sensitivity of yeast expressing OLE1 to known SCD1/SCD5 inhibitors” value (“Sensitivity … to known SCD1/SCD5 inhibitors” for short) at Ole1 is listed as “resistant”. Further, the “half-maximal inhibitory concentration (IC50), SCD1 humanized strain” value at SCD1 is “low nanomolar”.
One may read the IC50 as the concentration at which inhibition is half-maximal. Lower therefore signals inhibition by little substance. Regarding `COc1ccc(-c2noc(C3CCN(C(=O)[C@@H]4CC(=O)N(c5ccccc5)C4)CC3)n2)cc1OC` [Compound 66], at SCD5 (setting [1]), the IC50 is more than 45 µM and the “SCD5 % Max Inhibition” value came out at 19.53%. In addition, the “OLE1 % Max Inhibition” value at Ole1 was determined as 99.71%. Also, on SCD1 (setting [2]), the IC50 was more than 45 µM and the “SCD1 % Max Inhibition” value amounted to 94.04%.
Consider `Cc1nnc(-c2ccc(N3CCC(Oc4cc(F)ccc4Cl)CC3)nn2)o1` [CAY10566, reference compound], for which the “half-maximal inhibitory concentration (IC50), SCD5 humanized strain” value at SCD5 was “low nanomolar”. The “Sensitivity … to known SCD1/SCD5 inhibitors” value on Ole1 is “resistant”. Moreover, the “half-maximal inhibitory concentration (IC50), SCD1 humanized strain” value at SCD1 was “low nanomolar”.
For the compound `COc1ccc(-c2noc(C3CCN(C(=O)[C@H]4CC(=O)N(c5ccc(C)c(C)c5)C4)CC3)n2)cc1OC` (single isomer, unassigned) [Compound 67], the “SCD5 % Max Inhibition” value on SCD5 (setting [1]) was determined as 4.32%. Also, the “OLE1 % Max Inhibition” value on Ole1 is listed as 85.79%. Also, the “SCD1 % Max Inhibition” value at SCD1 (setting [2]) is 54.45%.
As to `CCN1C(=O)CN(C)c2ccc(-c3noc(C4CCN(C(=O)CNC(=O)c5ccccc5)CC4)n3)cc21` [Compound 298], at SCD5 (setting [3]), the IC50 was more than 45 µM and the “SCD5 % Max Inhibition” value was determined as 21.3%. Further, the “OLE1 % Max Inhibition” value at Ole1 came out at 6.6%. At SCD1 (setting [4]), the IC50 is more than 45 µM and the “SCD1 % Max Inhibition” value was 92.3%.
`CC1=NN(C)C2C=C(c3noc([C@H]4CC[C@H](O)CC4)n3)C=CC12` (stereo partly drawn) [Compound 526]: the IC50 against SCD5 (setting [3]) and on SCD1 (setting [4]) was more than 45 µM each time.
As for `Cc1nn(C)c2cc(-c3noc(C4CCN(C(=O)OC(C)(C)C)CC4)n3)ccc12` [Compound 300], at SCD5 (setting [3]), the IC50 is more than 45 µM and the “SCD5 % Max Inhibition” value turned out to be 36.0%. The “OLE1 % Max Inhibition” value on Ole1 is reported as 79.7%. Further, on SCD1 (setting [4]), the IC50 was more than 45 µM and the “SCD1 % Max Inhibition” value came out at 78.1%.
`COc1cccc(-c2noc(C3CCN(C(=O)[C@@H]4CC(=O)N(c5ccc(C)c(C)c5)C4)CC3)n2)c1` (single isomer, unassigned) [Compound 69]: at SCD5 (setting [1]), the “SCD5 % Max Inhibition” value turned out to be 8.06%. The “OLE1 % Max Inhibition” value at Ole1 was 105.31%. The “SCD1 % Max Inhibition” value at SCD1 (setting [2]) amounted to 60.59%.
On to `CC(C)n1ncc2ccc(-c3noc(C4CCN(C(=O)c5ncco5)CC4)n3)cc21` [Compound 615], for which the IC50 at SCD5 (setting [5]) stood at 1.88 µM; on SCD1 (setting [6]), 0.848 µM.
For `CNC(=O)c1cccc(NC(=O)N2CCC(Oc3ccccc3Cl)CC2)c1` [Compound A939572, reference compound], on SCD5, the “half-maximal inhibitory concentration (IC50), SCD5 humanized strain” value is reported as “low nanomolar”. Besides, the “Sensitivity … to known SCD1/SCD5 inhibitors” value at Ole1 is given as “resistant”. Moreover, the “half-maximal inhibitory concentration (IC50), SCD1 humanized strain” value on SCD1 was “low nanomolar”.
Take `COc1ccc(-c2noc(C3CCN(C(=O)[C@@H]4CC(=O)N(c5ccc(C)c(C)c5)C4)CC3)n2)cc1OC` [Compound 68]: on SCD5 (setting [1]), the IC50 was more than 45 µM and the “SCD5 % Max Inhibition” value amounted to 3.75%. Besides, on Ole1, the “OLE1 % Max Inhibition” value is 9.74%. At SCD1 (setting [2]), the IC50 is more than 45 µM and the “SCD1 % Max Inhibition” value is listed as 22.28%.
In the case of `Cc1cc(N2CCN(c3nc(-c4ccc5cnn(C(C)C)c5c4)no3)CC2)on1` [Compound 657], the figures for the IC50 at SCD5 (setting [5]) and on SCD1 (setting [6]) were 9.11 µM and more than 45 µM, respectively.
Regarding `Cc1nn(C)c2cc(-c3noc(C4CCN(C(=O)CNC(=O)c5ccc(Cl)cc5)CC4(F)F)n3)ccc12` (stereo not drawn) [Compound 553], the figures for the IC50 against SCD5 (setting [3]) and against SCD1 (setting [4]) were 0.885 µM and 5.71 µM, respectively.
Take `O=C(O)Cn1nnc(-c2cc(N3CCC(Oc4cc(F)ccc4Br)CC3)no2)n1` [MK-8245, reference compound]: the “half-maximal inhibitory concentration (IC50), SCD5 humanized strain” value at SCD5 is reported as “low nanomolar”. For the same compound, the “Sensitivity … to known SCD1/SCD5 inhibitors” value on Ole1 is recorded as “resistant”.
With `COc1ccc(-c2noc(C3CCN(C(=O)[C@H]4CC(=O)N(c5ccccc5)C4)CC3)n2)cc1OC` [Compound 65], on SCD5 (setting [1]), the IC50 is more than 45 µM and the “SCD5 % Max Inhibition” value worked out at 73.43%. Besides, the “OLE1 % Max Inhibition” value at Ole1 worked out at 4.02%. Also, at SCD1 (setting [2]), the IC50 is more than 45 µM and the “SCD1 % Max Inhibition” value is listed as 83.43%.
Take `Cc1noc(N2CCC(c3nc(-c4ccc5c(C)nn(C)c5c4)no3)CC2)n1` [Compound 543]: the IC50 against SCD5 (setting [3]) was not below 45 µM; at SCD1 (setting [4]), more than 45 µM.
Regarding `Cc1nn(C)c2cc(-c3nsc(C4CCN(C(=O)CNC(=O)c5cccc(C#N)c5)CC4)n3)ccc12` [Compound 322], at SCD5 (setting [3]), the IC50 was more than 45 µM and the “SCD5 % Max Inhibition” value is recorded as 29.8%. Moreover, the “OLE1 % Max Inhibition” value at Ole1 is recorded as 9.0%. Further, at SCD1 (setting [4]), the IC50 is more than 45 µM and the “SCD1 % Max Inhibition” value worked out at 73.6%.
